The target in data set [1] is T1, 5-hydroxytryptamine receptor 1A (Homo sapiens, UniProt P08908).
T1 sequence (P08908 whole entry): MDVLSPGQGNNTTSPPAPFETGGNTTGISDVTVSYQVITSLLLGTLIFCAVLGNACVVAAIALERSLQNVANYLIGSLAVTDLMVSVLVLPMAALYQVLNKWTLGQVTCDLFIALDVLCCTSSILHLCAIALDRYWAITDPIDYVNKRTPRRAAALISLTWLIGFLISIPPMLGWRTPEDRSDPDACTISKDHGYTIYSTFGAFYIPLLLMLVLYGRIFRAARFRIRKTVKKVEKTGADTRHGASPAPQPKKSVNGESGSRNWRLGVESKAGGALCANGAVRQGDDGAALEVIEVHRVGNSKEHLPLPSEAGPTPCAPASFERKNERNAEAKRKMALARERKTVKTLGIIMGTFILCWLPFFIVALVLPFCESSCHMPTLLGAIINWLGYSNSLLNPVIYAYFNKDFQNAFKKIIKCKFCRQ
The data set can be described thus: Displacement of [3H]-8-OH-DPAT from human 5-HT1A receptor expressed in CHOK1 cells after 30 mins by liquid scintillation counting analysis. The data set is classed as cell-based, CHO-K1. (In general: Loss of bound radioactivity is the signal in a displacement assay; it reports binding, not function.)

Data set [2] concerns the target T2, Sodium-dependent serotonin transporter (Homo sapiens, UniProt P31645). The data set can be described thus: Displacement of [3H]citalopram from human SERT expressed in HEK293 cell membranes after 1 hr by liquid scintillation counting method. The data set is classed as cell-based.
For data set [3], the target named is T2, Sodium-dependent serotonin transporter. In words: Inhibition of human SERT expressed in CHO cell membranes assessed as reduction in [3H]serotonin uptake preincubated for 10 mins followed by [3H]serotonin addition measured after 20 mins by liquid scintillation counting method. The data set is classed as cell-based.
Data set [4] deals with Cytochrome P450 2D6 (Homo sapiens, UniProt P10635). The data set can be described thus: Inhibition of CYP2D6 in human liver microsomes assessed as reduction in formation of 1'-hydroxy-bufuralol from bufuralol preincubated with enzyme followed by substrate and beta-NADPH addition measured after 10 mins by LC-MS/MS analysis. The data set is classed as ADME. For orientation: Liver microsomes are a subcellular fraction often used to study metabolism.
Sequence of Cytochrome P450 2D6 (P10635 whole entry): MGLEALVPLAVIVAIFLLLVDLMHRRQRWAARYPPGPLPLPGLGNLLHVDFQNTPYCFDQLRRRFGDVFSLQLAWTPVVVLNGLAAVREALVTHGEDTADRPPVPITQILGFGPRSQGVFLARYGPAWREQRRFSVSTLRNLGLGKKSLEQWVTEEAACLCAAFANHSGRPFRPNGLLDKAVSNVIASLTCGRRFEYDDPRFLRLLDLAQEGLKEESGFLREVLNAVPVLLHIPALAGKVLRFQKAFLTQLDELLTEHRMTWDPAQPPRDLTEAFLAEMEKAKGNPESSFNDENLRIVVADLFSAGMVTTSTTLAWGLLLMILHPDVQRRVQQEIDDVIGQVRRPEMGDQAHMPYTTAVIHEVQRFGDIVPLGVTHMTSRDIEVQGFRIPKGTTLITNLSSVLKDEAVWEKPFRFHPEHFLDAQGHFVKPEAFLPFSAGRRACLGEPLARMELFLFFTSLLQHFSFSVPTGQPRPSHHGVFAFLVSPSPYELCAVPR

In data set [5] the test system is Rattus norvegicus. The data set can be described thus: Toxicity in Wistar rat assessed as increase in spontaneous locomotor activity at 3 and 10 mg/kg, po administered 26 and 2 hrs prior to testing measured for 30 mins. The data set is classed as organism-based. To be noted: in vivo, 0.5 h.
Data set [6] deals with HEK293. The data set can be described thus: Selectivity ratio of Ki for human SERT expressed in HEK293 cell membranes to Ki for human 5-HT1A expressed in CHO-K1 cell membranes. The data set is classed as cell-based.
Data set [7] has as its system Rattus norvegicus. In words: Toxicity in Wistar rat assessed as increase in spontaneous locomotor activity at 1 and 3 mg/kg, po administered 26 and 2 hrs prior to testing measured for 30 mins. The data set is classed as organism-based. Particulars: in vivo.
Data set [8] is described as follows: Drug uptake in Wistar rat brain at 1 mg/kg, po administered 26 and 2 hrs prior to testing by HPLC/MS analysis. The data set is classed as ADME, organism-based. Particulars: in vivo.
The nature of data set [9]: Antidepressant-like activity in Wistar rat assessed as decrease in immobility time at 1 and 3 mg/kg, po administered 30 mins post start of training session for 2 days measured 2 hrs post last dose by forced swimming test. The data set is classed as functional, organism-based.
Data set [10] is described as follows: Drug uptake in Wistar rat brain at 3 mg/kg, po administered 26 and 2 hrs prior to testing by HPLC/MS analysis. The data set is classed as ADME, organism-based. Particulars: in vivo.

Active and inactive are the calls of the source. No cut-off for these calls is given here.

T2 sequence (P31645 whole entry): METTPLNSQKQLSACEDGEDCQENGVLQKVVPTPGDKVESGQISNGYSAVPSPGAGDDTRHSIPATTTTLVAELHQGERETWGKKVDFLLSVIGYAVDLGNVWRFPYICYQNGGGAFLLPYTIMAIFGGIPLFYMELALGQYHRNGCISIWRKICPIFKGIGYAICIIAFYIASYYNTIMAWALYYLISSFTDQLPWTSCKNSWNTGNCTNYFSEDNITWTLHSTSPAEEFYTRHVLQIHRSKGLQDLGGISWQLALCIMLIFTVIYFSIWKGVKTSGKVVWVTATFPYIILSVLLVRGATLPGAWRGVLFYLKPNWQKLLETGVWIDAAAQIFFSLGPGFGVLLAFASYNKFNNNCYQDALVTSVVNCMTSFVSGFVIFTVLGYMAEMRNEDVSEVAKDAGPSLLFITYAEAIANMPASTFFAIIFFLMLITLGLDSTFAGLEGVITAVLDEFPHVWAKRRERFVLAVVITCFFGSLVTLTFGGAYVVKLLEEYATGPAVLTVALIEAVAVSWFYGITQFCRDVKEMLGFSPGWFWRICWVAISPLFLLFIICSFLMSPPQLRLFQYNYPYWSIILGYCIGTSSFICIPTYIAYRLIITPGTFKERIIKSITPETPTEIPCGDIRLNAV

For orientation: Ki means a dissociation constant, usually derived from enzyme kinetics or from competition with a known ligand. `COc1cccc(CC2CCN(CCc3ccccc3)CC2)c1`: the Ki was 29.3 nM in [1] and 212 nM in [2].
In the case of `COc1ccc(Br)c(CC2CCN(CCc3ccccc3OC)CC2)c1`, the inhibitory constant (Ki) in [1] is 3.03 nM; in [3], 37.6 nM.
`COc1ccc(Br)c(CC2CCN(CCc3ccc(OC)c(Cl)c3)CC2)c1`: the Ki in data set [1] is 1.04 nM; in data set [3] it was 18.9 nM.
What is called IC50 is the point on the concentration scale where inhibition reaches its midpoint. For `CC(C)Oc1ccc(Br)c(CC2CCN(CCc3cc4c(cc3Cl)OCCO4)CC2)c1`, the Ki was 15.9 nM in [1] and 13.9 nM in data set [3]. Also, in [4], the IC50 worked out at 1500 nM.
As for `COc1ccc(Br)c(CC2CCN(CCc3cccc(Cl)c3)CC2)c1`, the Ki in data set [1] amounted to 2.93 nM; in data set [3], 42.6 nM.
Regarding `COc1ccc(CCN2CCC(Cc3cc(OC)ccc3Br)CC2)cc1`, the inhibition constant (Ki) in [1] worked out at 0.81 nM; in data set [3], 37.5 nM.
Turning to `COc1ccc(Br)c(CC2CCN(CCc3ccc(Cl)cc3)CC2)c1`, the Ki in data set [1] was determined as 1.34 nM; in data set [3], 46.2 nM.
For the molecule `COc1ccc(Br)c(CC2CCN(CCc3cc(OC)c(OC)cc3Cl)CC2)c1`, the Ki in data set [1] turned out to be 1.96 nM; in data set [3] it was 28 nM.
As for `COc1ccc(Br)c(CC2CCN(CCc3cccc4c3OCCO4)CC2)c1`, the Ki worked out at 2.12 nM in [1] and 25.6 nM in [3].
As for `COc1ccc(Br)c(CC2CCN(CCc3ccccc3Cl)CC2)c1`, the Ki stood at 4.08 nM in data set [1] and 62.4 nM in data set [3].
On to `COc1ccc(Br)c(CC2CCN(CCc3cccc4ccccc34)CC2)c1`, for which the Ki in data set [1] stood at 4.81 nM; in data set [3] it was 38.9 nM.
For `COc1ccc(CCN2CCC(Cc3cc(OC)ccc3Br)CC2)c(Cl)c1`, the Ki in data set [1] is 1.12 nM; in data set [3], 30.5 nM.
On to `COc1ccc(Br)c(CC2CCN(CCc3ccc4c(c3)OCCO4)CC2)c1`, for which the inhibition constant Ki worked out at 0.36 nM in data set [1] and 14 nM in data set [3].
With `Fc1ccc([C@@H]2CCNC[C@H]2COc2ccc3c(c2)OCO3)cc1` [PAROXETINE], the Activity entry in data set [5] is given as “Non-Toxic”.
As to `COc1ccc(Br)c(CC2CCN(CCc3ccccc3)CC2)c1`, the inhibition constant Ki in [1] was found to be 2.72 nM; in [2] it was 66.4 nM; in data set [3] it was 66.4 nM. Further, the Ratio Ki in data set [6] was above 20.
As for `COc1ccc(Br)c(CC2CCN(CCc3ccc(OC)c(OC)c3)CC2)c1`, the figures for the Ki in data set [1] and in data set [3] were 1.56 nM and 26.9 nM, respectively.
Consider `CCOc1ccc(Br)c(CC2CCN(CCc3cc4c(cc3Cl)OCCO4)CC2)c1`, for which the figures for the Ki in data set [1] and in [3] were 23.4 nM and 18.7 nM, respectively. Also, the concentration for half-maximal inhibition (IC50) in data set [4] was found to be 1400 nM.
On to `COc1ccc(Br)c(CC2CCN(CCc3ccc(C)cc3)CC2)c1`, for which the inhibitory constant (Ki) in data set [1] is 1.4 nM; in data set [3], 65.3 nM.
In turn, `COc1ccc(F)c(CC2CCN(C3CCN(c4ccc(OC)c(OC)c4)CC3)CC2)c1` registered an inhibition constant (Ki) in data set [2] below 100 nM.
Molecule `COc1ccc(Br)c(CC2CCN(C3CCN(c4ccc(OC)c(OC)c4)CC3)CC2)c1` showed a half-maximal inhibitory concentration (IC50) in [1] below 10 nM.
On to `COc1ccc(Cl)c(CC2CCN(CCc3ccccc3)CC2)c1`, for which the Ki came to 2.27 nM in [1] and 102 nM in [2].
Regarding `COc1ccc(Br)c(CC2CCN(CCc3cc4c(cc3Cl)OCCO4)CC2)c1`, the figures for the Ki in data set [1] and in data set [3] were 6.46 nM and 12.4 nM, respectively. For the same molecule, in data set [6], the Ratio Ki was below 2. Besides, the IC50 in data set [4] was below 400 nM.
`COc1ccc(F)c(CC2CCN(CCc3ccccc3)CC2)c1`: the inhibitory constant (Ki) was determined as 6.04 nM in data set [1] and 274 nM in [2].
As for `COc1ccc(Br)c(CC2CCN(CCc3ccc(F)cc3)CC2)c1`, the inhibition constant Ki in data set [1] is 1.04 nM; in data set [3] it was 51.2 nM.
Turning to `COc1cccc(CCN2CCC(Cc3cc(OC)ccc3Br)CC2)c1`, the values for the Ki in data set [1] and in data set [3] were 0.82 nM and 37.5 nM, respectively.
Consider `COc1ccc(Br)c(CC2CCN(CCc3ccc4ccccc4c3)CC2)c1`, for which the figures for the Ki in data set [1] and in data set [3] were 0.89 nM and 25.6 nM, respectively.
Turning to `COCCOc1ccc(Br)c(CC2CCN(CCc3cc4c(cc3Cl)OCCO4)CC2)c1.Cl`, in [7], the Activity result is recorded as “Non-Toxic”. Moreover, the Drug uptake in data set [8] was found to be 6.74 nmol/kg; in data set [10], 30.3 nmol/kg. The result in data set [9] was Active. Besides, the IC50 in data set [3] was 306 nM; in data set [4] it was 3000 nM. In addition, the Ki in data set [3] stood at 32.7 nM.

The record behind these values is ChEMBL document CHEMBL3871287, “Discovery of SMP-304, a novel benzylpiperidine derivative with serotonin transporter inhibitory activity and 5-HT1A weak partial agonistic activity showing the antidepressant-like effect” (Bioorg Med Chem, 2017).
